Data: patent publication US9045445B2, “Glycine transporter-1 inhibitors, methods of making them, and uses thereof” (Albany Molecular Research, Inc., priority 2010, dated 2015)
Where a name gives a salt, the structure may show the parent alone.

The molecules below were run against T1, glycine transporter-1 (GlyT-1) (Homo sapiens, UniProt P48067) (assay: [14C]glycine uptake assay in JAR cells endogenously expressing GlyT-1 (scintillation proximity)). Conditions: GlyT-1 IC50 (nM).
T1 construct: JAR cells (ATCC#HTB-144), which endogenously express GlyT-1; host or cells: JAR human choriocarcinoma cells
T1 sequence (P48067 1-706): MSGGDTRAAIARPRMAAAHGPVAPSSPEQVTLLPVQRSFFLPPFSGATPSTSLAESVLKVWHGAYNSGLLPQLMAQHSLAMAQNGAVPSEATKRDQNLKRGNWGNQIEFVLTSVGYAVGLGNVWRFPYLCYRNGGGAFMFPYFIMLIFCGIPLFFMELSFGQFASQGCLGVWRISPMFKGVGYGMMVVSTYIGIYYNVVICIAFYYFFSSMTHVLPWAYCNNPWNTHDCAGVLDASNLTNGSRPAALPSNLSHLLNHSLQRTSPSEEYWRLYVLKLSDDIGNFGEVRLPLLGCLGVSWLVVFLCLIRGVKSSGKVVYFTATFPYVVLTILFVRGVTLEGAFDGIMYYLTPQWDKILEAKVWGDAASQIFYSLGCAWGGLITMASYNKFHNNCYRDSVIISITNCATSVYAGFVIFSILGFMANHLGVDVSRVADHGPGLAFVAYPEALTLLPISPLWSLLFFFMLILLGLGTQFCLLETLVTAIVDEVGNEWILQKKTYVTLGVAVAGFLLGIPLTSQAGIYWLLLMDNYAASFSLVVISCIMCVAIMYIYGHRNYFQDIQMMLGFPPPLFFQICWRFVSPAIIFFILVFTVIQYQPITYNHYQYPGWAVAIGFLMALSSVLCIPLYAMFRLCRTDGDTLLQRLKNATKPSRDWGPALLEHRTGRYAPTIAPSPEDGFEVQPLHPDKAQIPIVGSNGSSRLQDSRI
Type: cell-based
In short: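 IC50 comes from a four-parameter fit of nine-point, duplicate curves measuring inhibition of 5 μM [14C]glycine uptake, read by scintillation proximity after 3 h at 37 °C. Cells are human JAR, which express GlyT-1 endogenously, given 10 min compound pre-treatment in pH 7.4 buffer with 5 mM alanine and 0.75% DMSO.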

| Structure (SMILES) | IC50 [nM] |
| --- | --- |
| CCCS(=O)(=O)N1CCN(C2(CNC(=O)c3c(F)cccc3F)CC3CC3C2)CC1 (centres unmarked) [compound 199, 2,6-Difluoro-N-((3-(4-(propylsulfonyl)piperazin-1-yl)bicyclo[3.1.0]hexan-3-yl)methyl)benzamide Hydrochloride] | 621 |

Same assay, conditions: JAR cells, [14C]glycine 5 μM, 3 hour incubation; read-out: GlyT-1 IC50

| Structure (SMILES) | IC50 [nM] |
| --- | --- |
| Cn1cc(S(=O)(=O)N2CCN(C3(CNC(=O)c4c(Cl)cccc4OC(F)(F)F)CCC(F)(F)CC3)CC2)nn1 [compound 191, 2-Chloro-N-((4,4-difluoro-1-(4-(1-methyl-1H-1,2,3-triazol-4-ylsulfonyl)piperazin-1-yl)cyclohexyl)methyl)-6-(trifluoromethoxy) benzamide Hydrochloride] | 1 |
| CCCS(=O)(=O)N1CCN(C2(C(C)NC(=O)c3c(F)cccc3F)CCC(F)(F)CC2)CC1 (centres unmarked) [compound 196, N-(1-(4,4-Difluoro-1-(4-(propylsulfonyl)piperazin-1-yl)cyclohexyl)ethyl)-2,6-difluorobenzamide Hydrochloride] | 3780 |
| CCCS(=O)(=O)N1CCN(C2(C(C)NC(=O)c3c(F)cccc3F)CCC(F)(F)CC2)CC1 (centres unmarked) [compound 197, N-(1-(4,4-Difluoro-1-(4-(propylsulfonyl)piperazin-1-yl)cyclohexyl)ethyl)-2,6-difluorobenzamide Hydrochloride] | 304 |
| CCCS(=O)(=O)N1CCN(C2(CNC(=O)c3c(F)cccc3F)CCC3(CC3)CC2)CC1 [compound 198, 2,6-Difluoro-N-((6-(4-(propylsulfonyl)piperazin-1-yl)spiro[2.5]octan-6-yl)methyl)benzamide Hydrochloride] | 162 |
| CCS(=O)(=O)N1CCN(C2(CNC(=O)c3ccc(C(F)(F)F)cc3C(F)(F)F)CCC(F)(F)CC2)CC1 [compound 204, N-((1-(4-(Ethylsulfonyl)piperazin-1-yl)-4,4-difluorocyclohexyl)methyl)-2,4-bis(trifluoromethyl) benzamide Hydrochloride] | 95 |
| CCS(=O)(=O)N1CCN(C2(CNC(=O)c3ccc(C(C)(F)F)cc3Cl)CCC(F)(F)CC2)CC1 [compound 205, 2-Chloro-4-(1,1-difluoroethyl)-N-((1-(4-(ethylsulfonyl)piperazin-1-yl)-4,4-difluorocyclohexyl)methyl) benzamide Hydrochloride] | 187 |
| CCS(=O)(=O)N1CCN(C2(CNC(=O)c3c(Cl)cc(C(F)(F)F)cc3C(F)(F)F)CCC(F)(F)CC2)CC1 [compound 206, 2-Chloro-N-((1-(4-(ethylsulfonyl)piperazin-1-yl)-4,4-difluorocyclohexyl)methyl)-4,6-bis(trifluoromethyl) benzamide Hydrochloride] | 83 |
| CCS(=O)(=O)N1CCN(C2(CNC(=O)c3c(F)cc(Cl)cc3F)CCC(F)(F)CC2)CC1 [compound 208, 4-Chloro-N-((1-(4-(ethylsulfonyl)piperazin-1-yl)-4,4-difluoro-cyclohexyl)methyl)-2,6-difluorobenzamide Hydrochloride] | 137 |
| CCS(=O)(=O)N1CCN(C2(CNC(=O)c3c(Cl)cc(Cl)cc3Cl)CCC(F)(F)CC2)CC1 [compound 209, 2,4,6-Trichloro-N-((1-(4-(ethylsulfonyl)piperazin-1-yl)-4,4-difluorocyclohexyl)methyl) benzamide Hydrochloride] | 83 |
| CCS(=O)(=O)N1CCN(C2(CNC(=O)c3c(F)cc(Cl)cc3Cl)CCC(F)(F)CC2)CC1 [compound 210, 2,4-Dichloro-N-((1-(4-(ethylsulfonyl)piperazin-1-yl)-4,4-difluorocyclohexyl)methyl)-6-fluorobenzamide Hydrochloride] | 72 |
| CCS(=O)(=O)N1CCN(C2(CNC(=O)c3c(F)ccc(C(F)(F)F)c3F)CCC(F)(F)CC2)CC1 [compound 211, N-((1-(4-(Ethylsulfonyl)piperazin-1-yl)-4,4-difluorocyclohexyl)methyl)-2,6-difluoro-3-(trifluoromethyl) benzamide Hydrochloride] | 2780 |
| CCS(=O)(=O)N1CCN(C2(CNC(=O)c3cc(F)c(Cl)cc3Cl)CCC(F)(F)CC2)CC1 [compound 212, 2,4-Dichloro-N-((1-(4-(ethylsulfonyl)piperazin-1-yl)-4,4-difluorocyclohexyl)methyl)-5-fluorobenzamide Hydrochloride] | 209 |
| CCS(=O)(=O)N1CCN(C2(CNC(=O)c3c(F)ccc(Cl)c3F)CCC(F)(F)CC2)CC1 [compound 213, 3-Chloro-N-((1-(4-(ethylsulfonyl)piperazin-1-yl)-4,4-difluorocyclohexyl)methyl)-2,6-difluorobenzamide Hydrochloride] | 875 |
| CCS(=O)(=O)N1CCN(C2(CNC(=O)c3cc(F)c(F)cc3Cl)CCC(F)(F)CC2)CC1 [compound 214, 2-Chloro-N-((1-(4-(ethylsulfonyl)piperazin-1-yl)-4,4-difluorocyclohexyl)methyl)-4,5-difluorobenzamide Hydrochloride] | 329 |
| CCS(=O)(=O)N1CCN(C2(CNC(=O)c3c(Cl)ccc(C(F)(F)F)c3Cl)CCC(F)(F)CC2)CC1 [compound 215, 2,6-Dichloro-N-((1-(4-(ethylsulfonyl)piperazin-1-yl)-4,4-difluorocyclohexyl)methyl)-3-(trifluoromethyl) benzamide Hydrochloride] | 2460 |
| CCS(=O)(=O)N1CCN(C2(CNC(=O)c3c(F)cc(OC)cc3F)CCC(F)(F)CC2)CC1 [compound 216, N-((1-(4-(Ethylsulfonyl)piperazin-1-yl)-4,4-difluorocyclohexyl)methyl)-2,6-difluoro-4-methoxybenzamide Hydrochloride] | 1290 |
| CCS(=O)(=O)N1CCN(C2(CNC(=O)c3c(C)cc(C)cc3C)CCC(F)(F)CC2)CC1 [compound 217, N-((1-(4-(Ethylsulfonyl)piperazin-1-yl)-4,4-difluorocyclohexyl)methyl)-2,4,6-trimethylbenzamide Hydrochloride] | 216 |
| Cn1cc(S(=O)(=O)N2CCN(C3(CNC(=O)c4ccc(F)cc4F)CCC(F)(F)CC3)CC2)nn1 [compound 229, N-((4,4-Difluoro-1-(4-(1-methyl-1H-1,2,3-triazol-4-ylsulfonyl)piperazin-1-yl)cyclohexyl)methyl)-2,4-difluorobenzamide Hydrochloride] | 10 |
| CC1CN(S(=O)(=O)c2cn(C)nn2)C(C)CN1C1(CNC(=O)c2ccc(C(F)(F)F)cc2C(F)(F)F)CCC(F)(F)CC1 (centres unmarked) [compound 237, N-((1-(2,5-Dimethyl-4-(1-methyl-1H-1,2,3-triazol-4-ylsulfonyl)piperazin-1-yl)-4,4-difluorocyclohexyl)methyl)-2,4-bis(trifluoromethyl) benzamide Hydrochloride] | 2 |
| Cn1cc(S(=O)(=O)N2CCN(C3(CNC(=O)c4cc(F)c(Cl)cc4F)CCC(F)(F)CC3)CC2)nn1 [compound 238, 4-Chloro-N-((4,4-difluoro-1-(4-(1-methyl-1H-1,2,3-triazol-4-ylsulfonyl)piperazin-1-yl)cyclohexyl)methyl)-2,5-difluorobenzamide Hydrochloride] | 12 |
| Cc1cc(F)c(C(=O)NCC2(N3CCN(S(=O)(=O)c4cn(C)nn4)CC3)CCC(F)(F)CC2)cc1F [compound 239, N-((4,4-Difluoro-1-(4-(1-methyl-1H-1,2,3-triazol-4-ylsulfonyl)piperazin-1-yl)cyclohexyl)methyl)-2,5-difluoro-4-methylbenz-amide Hydrochloride] | 20 |
| Cl.[2H]C([2H])([2H])n1cc(S(=O)(=O)N2CCN(C3(CNC(=O)c4ccc(C(F)(F)F)cc4Cl)CCC(F)(F)CC3)CC2)nn1 [compound 240, 2-Chloro-N-((4,4-difluoro-1-(4-(1-(tris-deutero)methyl-1H-1,2,3-triazol-4-ylsulfonyl)piperazin-1-yl)cyclohexyl)methyl)-4-(trifluoromethyl)benzamide Hydrochloride] | 49 |
| Cn1cc(S(=O)(=O)N2CCN(C3(CNC(=O)c4c(F)cc(Cl)cc4Cl)CCC(F)(F)CC3)CC2)nn1 [compound 241, 2,4-Dichloro-N-((4,4-difluoro-1-(4-(1-methyl-1H-1,2,3-triazol-4-ylsulfonyl)piperazin-1-yl)cyclohexyl)methyl)-6-fluorobenzamide Hydrochloride] | 1 |
| Cc1ccc(C(=O)NCC2(N3CCN(S(=O)(=O)c4cn(C)nn4)CC3)CCC(F)(F)CC2)c(Cl)c1F [compound 242, 2-Chloro-N-((4,4-difluoro-1-(4-(1-methyl-1H-1,2,3-triazol-4-ylsulfonyl)piperazin-1-yl)cyclohexyl)methyl)-3-fluoro-4-methylbenzamide Hydrochloride] | 1 |
| CCCS(=O)(=O)N1CCN(C2(CNC(=O)c3cc(Cl)ccc3Cl)CCC(F)(F)CC2)CC1 [compound 243, 2,5-Dichloro-N-((4,4-difluoro-1-(4-(propylsulfonyl)piperazin-1-yl)cyclohexyl)methyl) benzamide Hydrochloride] | 57 |
